# Measured values published in patent US20100261662A1, “UTILIZATION OF MURAL THROMBUS FOR LOCAL DRUG DELIVERY INTO VASCULAR TISSUE” (ENDOLOGIX, INC., priority 2009, published 2010).
# What was measured:
# [1] = tested on: collagen contained within the vascular tissue; assay: Short-term application of catechin to vascular tissue; conditions: short-term (approximately 10-30 minute) application
# Description: Catechin can be delivered in solution form into the mural thrombus. This delivery method pathway can be used, without limitation, when a short-acting application of a high-concentration of catechin is desired. […] In some embodiments, the concentration of the agent can be in the range from approximately 0.01% to approximately 20%, or between approximately 2.0% and approximately 10.0%, or to or from any values within these ranges.
# skin collagen = conditions: rats treated with catechin; cited from earlier work
substance,measurement,setting,value
catechin,stabilization of collagen in vascular tissue,[1],can stabilize the collagen
same,stability of skin collagen against enzymatic degradation,skin collagen,stable against enzymatic degradation
